Measurements as given in paper PMC6825211 (Nature Communications, 2019).
Values joined by “and” are separate entries in the source; they are usually repeats but may differ in a detail not shown here. Equal values may be shown once. “Also recorded” adds a separate entry of the source.

Legend:
INS-1E cells = test: Caspase-3 activation Nucview assay, TNFα/IFNγ with 33 mM glucose; format: cell-based, rat; conditions: up to 6.7 µM neratinib
MLD–STZ C57BL/6J mice [1] = test: MLD–STZ model: intraperitoneal insulin tolerance test (ipITT); format: in vivo, mouse; set-up: ipITT glucose: unit not given here
Procedure: (§1) C57Bl/6J mice were injected with 40 mg/kg streptozotocin or citrate buffer for 5 consecutive days. […] In d, basal glucose values were normalized to 100%. e Insulin secretion measured from retro-orbital blood draw during an ipGTT measured before (0 min) and 15 min after glucose injection; data are expressed as the ratio of secreted insulin at 15 min/0 min (stimulatory index). f The ratio of secreted insulin and glucose is calculated at fed state. g–i Mice were killed at day 35. g β-cell mass (given as percentage of the whole pancreatic section from ten sections spanning the width of the pancreas) and quantitative analyses from triple staining for h TUNEL or i Ki67, insulin, and DAPI expressed as percentage of TUNEL- or Ki67-positive β-cells ±SEM. An average number of 2331 (h), or 26369 (i) β-cells were counted. n = 9 mice/group for (a); n = 4–12 for (b); n = 5–15 for (c) and (d); n = 12–19 for (e); n = 8–14 for (f); n = 4–9 for (g); n = 4–11 for (h); and n = 6–11 mice/groupfor (i); all from three independent experiments).
For intraperitoneal glucose tolerance tests, mice were fasted 12 h overnight and injected i.p. with glucose (40%; B.Braun, Melsungen, Germany) at a dose of 1 g/kg body weight. Blood samples were obtained at time points 0, 15, 30, 60, 90, and 120 min for glucose measurements by using a Glucometer. For i.p. insulin tolerance tests, mice were injected with 0.75 U/kg body weight recombinant human insulin (Novolin, Novo Nordisk) after 4–5-h fasting, and glucose concentration was determined with the Glucometer. Insulin secretion was measured before (0 min) and after (15 and 30 min) i.p. injection of glucose (2 g/kg) and measured by using ultrasensitive mouse Elisa kit (ALPCO Diagnostics, Salem, NH).

MLD–STZ C57BL/6J mice [2] = test: MLD–STZ model: insulin secretion during ipGTT (stimulatory index); format: in vivo, mouse; conditions: glucose-stimulated, i.p.
Procedure: as §1
For intraperitoneal glucose tolerance tests, mice were fasted 12 h overnight and injected i.p. with glucose (40%; B.Braun, Melsungen, Germany) at a dose of 1 g/kg body weight. […] Insulin secretion was measured before (0 min) and after (15 and 30 min) i.p. injection of glucose (2 g/kg) and measured by using ultrasensitive mouse Elisa kit (ALPCO Diagnostics, Salem, NH).

MLD–STZ C57BL/6J mice [3] = test: MLD–STZ model: β-cell proliferation (Ki67); format: in vivo, mouse
[4] = system: isolated islets from db/db mice; test: Ex vivo pMST1, BIM (western blot) and nuclear PDX1 in isolated db/db islets; format: cell-based, mouse; conditions: 10 μM, 24 h ex vivo
From the text: mouse islets ex vivo. Representative double-stainings for PDX1 (green) and insulin (red) shown from isolated islets from 10-week old heterozygous db/+ mice or db/db littermates […]
Representative microscopical images are shown. White arrow point to PDX1 deficient nuclei in db/db mouse islets. Related to Figure

MST family members = system: MST family members; set-up: method as in PMID 22037378; conditions: cited from earlier work
CAMK4 = CAMK4 (Homo sapiens, UniProt Q16566); test: Nanosyn kinase profiling, mobility shift assay; conditions: read-out: % inhibition by neratinib
CAMK4, sequence (Q16566 whole entry): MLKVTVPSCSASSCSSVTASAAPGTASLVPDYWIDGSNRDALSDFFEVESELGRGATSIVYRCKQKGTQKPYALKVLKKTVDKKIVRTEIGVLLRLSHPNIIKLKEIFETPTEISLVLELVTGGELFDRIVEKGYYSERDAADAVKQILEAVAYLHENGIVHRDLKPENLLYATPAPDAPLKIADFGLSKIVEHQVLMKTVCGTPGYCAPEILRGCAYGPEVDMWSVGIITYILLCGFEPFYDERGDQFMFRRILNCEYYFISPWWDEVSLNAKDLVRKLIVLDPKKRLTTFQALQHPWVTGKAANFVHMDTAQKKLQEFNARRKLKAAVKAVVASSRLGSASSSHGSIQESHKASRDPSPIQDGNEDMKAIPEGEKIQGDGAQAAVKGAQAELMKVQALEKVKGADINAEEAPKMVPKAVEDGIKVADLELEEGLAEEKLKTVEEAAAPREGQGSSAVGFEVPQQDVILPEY

CHEK1 = CHEK1 (Homo sapiens, UniProt O14757); test: Nanosyn kinase profiling, mobility shift assay; conditions: read-out: % inhibition by neratinib
CHEK1, sequence (O14757 whole entry): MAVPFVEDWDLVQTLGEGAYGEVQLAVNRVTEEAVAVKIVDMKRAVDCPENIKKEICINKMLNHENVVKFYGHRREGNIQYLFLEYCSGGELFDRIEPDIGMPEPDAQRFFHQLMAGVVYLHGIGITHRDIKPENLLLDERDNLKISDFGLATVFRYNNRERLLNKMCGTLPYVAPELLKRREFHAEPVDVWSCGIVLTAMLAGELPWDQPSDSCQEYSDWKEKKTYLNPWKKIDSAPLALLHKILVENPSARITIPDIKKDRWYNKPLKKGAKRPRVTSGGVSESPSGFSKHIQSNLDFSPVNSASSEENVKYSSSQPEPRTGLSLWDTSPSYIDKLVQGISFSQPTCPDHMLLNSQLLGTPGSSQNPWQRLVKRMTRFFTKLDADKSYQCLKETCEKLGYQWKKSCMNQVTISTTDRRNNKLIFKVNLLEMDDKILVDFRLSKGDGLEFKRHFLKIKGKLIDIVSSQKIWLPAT

CK1-EPSILON = CK1-EPSILON (Homo sapiens, UniProt P49674); test: Nanosyn kinase profiling, mobility shift assay; conditions: read-out: % inhibition by neratinib
CK1-EPSILON, sequence (P49674 whole entry): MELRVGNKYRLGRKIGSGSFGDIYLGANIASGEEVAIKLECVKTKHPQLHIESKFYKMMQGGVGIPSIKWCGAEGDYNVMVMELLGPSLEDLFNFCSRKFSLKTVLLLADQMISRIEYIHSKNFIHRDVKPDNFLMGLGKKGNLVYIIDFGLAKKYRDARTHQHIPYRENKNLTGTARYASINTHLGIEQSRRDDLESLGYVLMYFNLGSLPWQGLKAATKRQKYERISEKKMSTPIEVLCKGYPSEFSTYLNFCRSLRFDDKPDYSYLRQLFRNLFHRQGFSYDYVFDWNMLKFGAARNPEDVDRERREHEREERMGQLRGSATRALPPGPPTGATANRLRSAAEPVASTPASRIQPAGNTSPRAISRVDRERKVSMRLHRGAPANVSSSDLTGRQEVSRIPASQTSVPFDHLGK

DYRK1A = DYRK1A (Homo sapiens, UniProt Q13627); test: Nanosyn kinase profiling, mobility shift assay; conditions: read-out: % inhibition by neratinib
EPH-A2 = EPH-A2 (Homo sapiens, UniProt P29317); test: Nanosyn kinase profiling, mobility shift assay; conditions: read-out: % inhibition by neratinib
EPH-A2, sequence (P29317 24-976): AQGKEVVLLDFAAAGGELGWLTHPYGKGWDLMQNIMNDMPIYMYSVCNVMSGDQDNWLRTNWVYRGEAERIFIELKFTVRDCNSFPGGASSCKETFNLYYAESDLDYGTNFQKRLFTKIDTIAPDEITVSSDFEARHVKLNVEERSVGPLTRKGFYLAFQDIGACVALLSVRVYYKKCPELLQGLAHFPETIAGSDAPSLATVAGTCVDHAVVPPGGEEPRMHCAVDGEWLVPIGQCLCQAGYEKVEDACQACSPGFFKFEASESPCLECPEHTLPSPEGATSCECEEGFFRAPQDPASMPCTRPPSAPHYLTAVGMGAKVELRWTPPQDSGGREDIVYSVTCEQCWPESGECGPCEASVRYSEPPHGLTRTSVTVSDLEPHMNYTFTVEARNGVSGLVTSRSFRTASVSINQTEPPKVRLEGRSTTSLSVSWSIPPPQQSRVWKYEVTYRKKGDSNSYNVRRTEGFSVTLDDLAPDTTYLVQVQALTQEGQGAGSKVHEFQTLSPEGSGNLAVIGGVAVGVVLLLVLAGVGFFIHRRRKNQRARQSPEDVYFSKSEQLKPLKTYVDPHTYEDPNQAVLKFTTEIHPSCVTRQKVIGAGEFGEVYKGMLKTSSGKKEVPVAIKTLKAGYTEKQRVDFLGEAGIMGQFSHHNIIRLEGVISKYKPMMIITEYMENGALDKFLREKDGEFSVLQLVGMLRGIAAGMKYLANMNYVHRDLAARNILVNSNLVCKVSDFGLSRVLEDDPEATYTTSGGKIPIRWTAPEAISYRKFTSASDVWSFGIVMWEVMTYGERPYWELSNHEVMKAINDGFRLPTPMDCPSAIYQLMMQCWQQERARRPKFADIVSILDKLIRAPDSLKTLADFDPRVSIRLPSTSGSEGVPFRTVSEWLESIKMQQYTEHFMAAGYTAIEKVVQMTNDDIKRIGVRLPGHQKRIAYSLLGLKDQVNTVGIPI

ITK = ITK (Homo sapiens, UniProt Q08881); test: Nanosyn kinase profiling, mobility shift assay; conditions: read-out: % inhibition by neratinib
ITK, sequence (Q08881 whole entry): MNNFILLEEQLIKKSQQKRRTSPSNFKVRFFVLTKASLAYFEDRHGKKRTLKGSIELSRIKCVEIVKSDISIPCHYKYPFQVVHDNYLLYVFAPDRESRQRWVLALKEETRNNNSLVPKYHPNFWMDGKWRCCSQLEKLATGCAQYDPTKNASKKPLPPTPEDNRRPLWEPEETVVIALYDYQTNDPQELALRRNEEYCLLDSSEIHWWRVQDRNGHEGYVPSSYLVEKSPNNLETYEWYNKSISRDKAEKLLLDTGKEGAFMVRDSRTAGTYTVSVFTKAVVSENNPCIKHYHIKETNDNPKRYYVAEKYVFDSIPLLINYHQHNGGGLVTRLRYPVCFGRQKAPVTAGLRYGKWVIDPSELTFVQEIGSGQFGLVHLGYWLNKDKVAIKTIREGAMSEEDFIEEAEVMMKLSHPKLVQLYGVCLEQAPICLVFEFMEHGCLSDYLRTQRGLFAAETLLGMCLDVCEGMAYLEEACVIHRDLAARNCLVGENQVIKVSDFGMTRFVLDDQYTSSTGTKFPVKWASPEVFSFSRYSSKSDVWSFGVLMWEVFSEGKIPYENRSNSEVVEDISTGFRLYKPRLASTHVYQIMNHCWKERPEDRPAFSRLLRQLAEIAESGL

JNK2 = JNK2 (Homo sapiens, UniProt P45984); test: Nanosyn kinase profiling, mobility shift assay; conditions: read-out: % inhibition by neratinib
JNK2, sequence (P45984 whole entry): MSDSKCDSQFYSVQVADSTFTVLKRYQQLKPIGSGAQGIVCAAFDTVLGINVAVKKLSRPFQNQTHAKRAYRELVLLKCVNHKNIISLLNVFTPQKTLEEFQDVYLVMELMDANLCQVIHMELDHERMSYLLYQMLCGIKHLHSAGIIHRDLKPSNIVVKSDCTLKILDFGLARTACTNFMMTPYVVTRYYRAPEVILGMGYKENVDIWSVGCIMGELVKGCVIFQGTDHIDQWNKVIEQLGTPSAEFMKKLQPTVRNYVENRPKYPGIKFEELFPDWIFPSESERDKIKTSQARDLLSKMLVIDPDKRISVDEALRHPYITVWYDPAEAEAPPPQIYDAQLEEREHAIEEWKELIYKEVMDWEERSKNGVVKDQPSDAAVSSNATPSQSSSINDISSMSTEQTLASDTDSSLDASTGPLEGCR

PYK2 = PYK2 (Homo sapiens, UniProt Q14289); test: Nanosyn kinase profiling, mobility shift assay; conditions: read-out: % inhibition by neratinib
PYK2, sequence (Q14289 whole entry): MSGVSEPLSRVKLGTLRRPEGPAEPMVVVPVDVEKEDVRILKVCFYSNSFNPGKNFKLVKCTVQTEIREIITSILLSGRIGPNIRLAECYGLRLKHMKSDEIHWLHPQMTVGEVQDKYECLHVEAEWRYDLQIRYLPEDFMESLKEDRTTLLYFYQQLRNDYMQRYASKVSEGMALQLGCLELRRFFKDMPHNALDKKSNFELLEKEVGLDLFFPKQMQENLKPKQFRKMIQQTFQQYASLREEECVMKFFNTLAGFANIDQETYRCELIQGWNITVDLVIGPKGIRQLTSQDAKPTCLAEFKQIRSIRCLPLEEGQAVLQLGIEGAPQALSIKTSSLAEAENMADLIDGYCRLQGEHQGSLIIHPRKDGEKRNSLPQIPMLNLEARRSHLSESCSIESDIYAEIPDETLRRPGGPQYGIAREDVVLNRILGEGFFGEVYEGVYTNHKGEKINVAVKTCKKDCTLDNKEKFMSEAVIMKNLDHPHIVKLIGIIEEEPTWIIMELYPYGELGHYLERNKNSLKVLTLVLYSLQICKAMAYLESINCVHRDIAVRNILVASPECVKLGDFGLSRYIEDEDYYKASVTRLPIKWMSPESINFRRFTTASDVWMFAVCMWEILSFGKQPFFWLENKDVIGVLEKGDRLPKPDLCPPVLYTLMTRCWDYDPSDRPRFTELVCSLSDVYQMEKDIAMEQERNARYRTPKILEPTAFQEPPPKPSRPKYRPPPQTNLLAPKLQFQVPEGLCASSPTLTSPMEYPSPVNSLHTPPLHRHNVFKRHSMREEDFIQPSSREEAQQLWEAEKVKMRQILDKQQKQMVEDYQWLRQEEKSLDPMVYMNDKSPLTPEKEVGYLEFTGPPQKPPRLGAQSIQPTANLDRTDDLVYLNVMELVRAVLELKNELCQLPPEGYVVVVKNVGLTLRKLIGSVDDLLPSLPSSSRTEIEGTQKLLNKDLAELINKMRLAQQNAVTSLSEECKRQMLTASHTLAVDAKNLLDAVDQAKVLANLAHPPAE

SYK = SYK (Homo sapiens, UniProt P43405); test: Nanosyn kinase profiling, mobility shift assay; conditions: read-out: % inhibition by neratinib
human islets = test: β-cell apoptosis (TUNEL/insulin) after Ad-MST1 overexpression; conditions: for mean TUNEL/isolation/%: MST1 OE + NERA 10 μM 48 h
Procedure: Isolated human islets or INS-1E cells were infected with adenovirus carrying LacZ as control or MST1 or LATS2 (all Vector Biolabs), at a multiplicity of infection of 100 (human islets) or 20 (INS-1E) for 4 h[11].

[5] = system: isolated islets from MST1-KO mice; test: β-cell apoptosis (TUNEL/insulin) under diabetogenic conditions, MST1-KO islets

## CCOc1cc2ncc(C#N)c(Nc3ccc(OCc4ccccn4)c(Cl)c3)c2cc1NC(=O)/C=C/CN(C)C [neratinib]
INS-1E cells
  caspase-3 activation induced by TNFα/IFNγ and high glucose: largely inhibited
MLD–STZ C57BL/6J mice [1]; MLD–STZ study
  insulin sensitivity (normalized glucose levels): neither neratinib nor STZ had a significant effect
MLD–STZ C57BL/6J mice [1]; NeraCtr, 0 min, Mean
  ipITT glucose: 130.4
MLD–STZ C57BL/6J mice [1]; NeraCtr, 0 min after ins
  ipITT glucose normalized to 100, MEAN: 100
MLD–STZ C57BL/6J mice [1]; NeraCtr, 0 min after ins, individual mice
  ipITT glucose: 135 and 120 and 117 and 132 and 148
MLD–STZ C57BL/6J mice [1]; NeraCtr, 15 min, Mean
  ipITT glucose: 84.6
MLD–STZ C57BL/6J mice [1]; NeraCtr, 15 min after ins
  ipITT glucose normalized to 100, MEAN: 64.88
MLD–STZ C57BL/6J mice [1]; NeraCtr, 15 min after ins, individual mice
  ipITT glucose: 94 and 83 and 116 and 55 and 75
MLD–STZ C57BL/6J mice [1]; NeraCtr, 30 min, Mean
  ipITT glucose: 84.4
MLD–STZ C57BL/6J mice [1]; NeraCtr, 30 min after ins
  ipITT glucose normalized to 100, MEAN: 64.72
MLD–STZ C57BL/6J mice [1]; NeraCtr, 30 min after ins, individual mice
  ipITT glucose: 80 and 67 and 123 and 71 and 81
MLD–STZ C57BL/6J mice [1]; NeraCtr, 60 min, Mean
  ipITT glucose: 82.8
MLD–STZ C57BL/6J mice [1]; NeraCtr, 60 min after ins
  ipITT glucose normalized to 100, MEAN: 63.5
MLD–STZ C57BL/6J mice [1]; NeraCtr, 60 min after ins, individual mice
  ipITT glucose: 84 and 80 and 121 and 48 and 81
MLD–STZ C57BL/6J mice [1]; NeraCtr, 90 min, Mean
  ipITT glucose: 89
MLD–STZ C57BL/6J mice [1]; NeraCtr, 90 min after ins
  ipITT glucose normalized to 100, MEAN: 68.25
MLD–STZ C57BL/6J mice [1]; NeraCtr, 90 min after ins, individual mice
  ipITT glucose: 90 and 87 and 129 and 52
MLD–STZ C57BL/6J mice [1]; NeraSTZ, 0 min, Mean
  ipITT glucose: 286.636
MLD–STZ C57BL/6J mice [1]; NeraSTZ, 0 min after ins
  ipITT glucose normalized to 100, MEAN: 100
MLD–STZ C57BL/6J mice [1]; NeraSTZ, 0 min after ins, individual mice
  ipITT glucose: 462 and 369 and 228 and 215 and 295 and 196 and 335 and 337 and 212 and 296 and 208
MLD–STZ C57BL/6J mice [1]; NeraSTZ, 15 min, Mean
  ipITT glucose: 267.636
MLD–STZ C57BL/6J mice [1]; NeraSTZ, 15 min after ins
  ipITT glucose normalized to 100, MEAN: 93.37
MLD–STZ C57BL/6J mice [1]; NeraSTZ, 15 min after ins, individual mice
  ipITT glucose: 244 and 341 and 151 and 180 and 262 and 206 and 353 and 362 and 225 and 333 and 287
MLD–STZ C57BL/6J mice [1]; NeraSTZ, 30 min, Mean
  ipITT glucose: 187.273
MLD–STZ C57BL/6J mice [1]; NeraSTZ, 30 min after ins
  ipITT glucose normalized to 100, MEAN: 65.33
MLD–STZ C57BL/6J mice [1]; NeraSTZ, 30 min after ins, individual mice
  ipITT glucose: 114 and 186 and 102 and 127 and 207 and 173 and 304 and 307 and 97 and 216 and 227
MLD–STZ C57BL/6J mice [1]; NeraSTZ, 60 min, Mean
  ipITT glucose: 132.545
MLD–STZ C57BL/6J mice [1]; NeraSTZ, 60 min after ins
  ipITT glucose normalized to 100, MEAN: 46.24
MLD–STZ C57BL/6J mice [1]; NeraSTZ, 60 min after ins, individual mice
  ipITT glucose: 123 and 110 and 79 and 95 and 108 and 169 and 231 and 87 and 198 and 150
MLD–STZ C57BL/6J mice [1]; NeraSTZ, 90 min, Mean
  ipITT glucose: 132.455
MLD–STZ C57BL/6J mice [1]; NeraSTZ, 90 min after ins
  ipITT glucose normalized to 100, MEAN: 46.21
MLD–STZ C57BL/6J mice [1]; NeraSTZ, 90 min after ins, individual mice
  ipITT glucose: 174 and 97 and 79 and 135 and 116 and 100 and 155 and 203 and 103 and 136 and 159
MLD–STZ C57BL/6J mice [2]
  impaired insulin secretion in STZ-treated mice: significantly improved
MLD–STZ C57BL/6J mice [3]; NeraCtr group (no STZ), MEAN
  Ki67%/ mouse: 0.3774%
MLD–STZ C57BL/6J mice [3]; NeraCtr group (no STZ), individual mice
  Ki67%/ mouse: 0% and 2% and 1.019%
MLD–STZ C57BL/6J mice [3]; NeraSTZ group, MEAN
  Ki67%/ mouse: 3.98%
MLD–STZ C57BL/6J mice [3]; NeraSTZ group, individual mice
  Ki67%/ mouse: 0% and 6.981% and 5.492% and 7.984% and 3.425%
[4]
  MST1 activation and proapoptotic BIM in db/db islets: reversed
  nuclear PDX1 expression in db/db islets: enhanced nuclear PDX1 expression
MST family members
  activity on MST family members: potent activity
CAMK4
  inhibition at 10 µM: 19%
CHEK1
  inhibition at 10 µM: 27%
CK1-EPSILON
  inhibition at 10 µM: 77%
DYRK1A
  inhibition at 10 µM: 3%
EPH-A2
  inhibition at 10 µM: 51%
ITK
  inhibition at 10 µM: 88%
JNK2
  inhibition at 10 µM: 84%
PYK2
  inhibition at 10 µM: 41%
SYK
  inhibition at 10 µM: -14%
Human islets; 10 μM, 48 h
  β-cell apoptosis induced by MST1 overexpression: significantly blocked; also recorded: almost fully blocked
Human islets; mean, LacZ = 100
  mean TUNEL/isolation/%: 126.263%
Human islets; single isolations, LacZ mean = 100
  mean TUNEL/isolation/%: 100% and 145.455% and 133.333%
[5]; 10 μM, 72 h
  cytokine- and glucolipotoxicity-induced apoptosis in MST1-KO islets: no significant effect
[5]; MST1-KO HG/Pal Nera 10 μM 72 h
  mean TUNEL/isolation/%: 407.974%
[5]; MST1-KO ILIF Nera 10 μM 72 h
  mean TUNEL/isolation/%: 384.79%
